The nature of test [1]: HEp-2 cell cytotoxicity, dose response, cytotoxicity control for RSV inhibitor project, HTS (AID 2410). Conditions: human respiratory syncytial virus. The test is classed as functional.
Test [2] can be described thus: insulin promoter down-regulators in MIN6 cells, imaging, high-content screening, mouse beta cells (AID 1628). The test is classed as functional.
Test [3] in a line: cytotoxicity in MIN6 insulinoma cells, dose response, cytotoxicity control, cell-based, mouse insulinoma (AID 2122).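 Further: confirmatory high-throughput counterscreen run to flag cytotoxic compounds; mouse MIN-6 beta cells carrying an insulin promoter eGFP reporter.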 In kind it is functional.
Test [4] is described as follows: inhibitors of intracellular T. cruzi replication, confirmation, NIH3T3 host cells, beta-gal luminescence (AID 2044).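 Further: intracellular parasites grown in NIH/3T3 mouse fibroblasts as host cells; luminescent beta-galactosidase reporter signal from transgenic T. cruzi replicating inside host cells; inhibitors lower the luminescence signal.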 The test is classed as functional, cell-based.
Test [5] in a line: cytotoxicity toward NIH3T3 fibroblasts, dose response, counter-screen, cell-based, ATP luminescence, mouse fibroblasts (AID 2010).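 Further: cells exposed to compound for about 90 hours before reading.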 In kind it is functional. On the technique in general: Counterscreens check selectivity or assay interference.
The target in test [6] is Peroxisome proliferator-activated receptor gamma/Nuclear receptor coactivator 1 (Homo sapiens, UniProt P37231). Description: TR-FRET dose response biochemical High Throughput Screening assay for agonists of the steroid receptor coactivator 1 (SRC-1) recruitment by the peroxisome proliferator-activated receptor gamma (PPAR gamma): non-selective agonists. [Related pubchem assays (depositor defined):AID1300, AID1808, AID504735, AID631]. In kind it is protein assay. A general note: Time-resolved FRET reads energy transfer from a long-lived donor to a nearby acceptor.

For test [7], the target named is Peroxisome proliferator-activated receptor gamma/Nuclear receptor coactivator 3 (Homo sapiens, UniProt P37231). Description: TR-FRET dose response biochemical High Throughput Screening assay for agonists of the steroid receptor coactivator 3 (SRC-3) recruitment by the peroxisome proliferator-activated receptor gamma (PPAR gamma): non-selective agonists. [Related pubchem assays: 1301 (Confirmation screen.), 1048 (Primary screen.)]. The test is classed as functional.
Chain of Peroxisome proliferator-activated receptor gamma/Nuclear receptor coactivator 3 (P37231 whole entry): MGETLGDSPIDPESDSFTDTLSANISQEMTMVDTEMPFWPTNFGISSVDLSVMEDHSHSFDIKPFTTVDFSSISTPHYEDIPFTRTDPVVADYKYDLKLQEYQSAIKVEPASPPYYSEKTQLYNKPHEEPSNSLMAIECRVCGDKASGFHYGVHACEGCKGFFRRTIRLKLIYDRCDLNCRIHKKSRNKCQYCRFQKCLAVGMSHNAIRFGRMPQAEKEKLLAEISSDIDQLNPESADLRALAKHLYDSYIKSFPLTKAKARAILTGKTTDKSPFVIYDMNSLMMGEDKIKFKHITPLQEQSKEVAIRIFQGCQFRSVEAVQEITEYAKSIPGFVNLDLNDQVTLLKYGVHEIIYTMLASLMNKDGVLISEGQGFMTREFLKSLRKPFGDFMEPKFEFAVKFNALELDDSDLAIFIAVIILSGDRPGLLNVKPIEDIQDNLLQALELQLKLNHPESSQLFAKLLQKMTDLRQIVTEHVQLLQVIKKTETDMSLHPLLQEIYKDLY
Chain of Peroxisome proliferator-activated receptor gamma/Nuclear receptor coactivator 3 (Q9Y6Q9 whole entry, further chain): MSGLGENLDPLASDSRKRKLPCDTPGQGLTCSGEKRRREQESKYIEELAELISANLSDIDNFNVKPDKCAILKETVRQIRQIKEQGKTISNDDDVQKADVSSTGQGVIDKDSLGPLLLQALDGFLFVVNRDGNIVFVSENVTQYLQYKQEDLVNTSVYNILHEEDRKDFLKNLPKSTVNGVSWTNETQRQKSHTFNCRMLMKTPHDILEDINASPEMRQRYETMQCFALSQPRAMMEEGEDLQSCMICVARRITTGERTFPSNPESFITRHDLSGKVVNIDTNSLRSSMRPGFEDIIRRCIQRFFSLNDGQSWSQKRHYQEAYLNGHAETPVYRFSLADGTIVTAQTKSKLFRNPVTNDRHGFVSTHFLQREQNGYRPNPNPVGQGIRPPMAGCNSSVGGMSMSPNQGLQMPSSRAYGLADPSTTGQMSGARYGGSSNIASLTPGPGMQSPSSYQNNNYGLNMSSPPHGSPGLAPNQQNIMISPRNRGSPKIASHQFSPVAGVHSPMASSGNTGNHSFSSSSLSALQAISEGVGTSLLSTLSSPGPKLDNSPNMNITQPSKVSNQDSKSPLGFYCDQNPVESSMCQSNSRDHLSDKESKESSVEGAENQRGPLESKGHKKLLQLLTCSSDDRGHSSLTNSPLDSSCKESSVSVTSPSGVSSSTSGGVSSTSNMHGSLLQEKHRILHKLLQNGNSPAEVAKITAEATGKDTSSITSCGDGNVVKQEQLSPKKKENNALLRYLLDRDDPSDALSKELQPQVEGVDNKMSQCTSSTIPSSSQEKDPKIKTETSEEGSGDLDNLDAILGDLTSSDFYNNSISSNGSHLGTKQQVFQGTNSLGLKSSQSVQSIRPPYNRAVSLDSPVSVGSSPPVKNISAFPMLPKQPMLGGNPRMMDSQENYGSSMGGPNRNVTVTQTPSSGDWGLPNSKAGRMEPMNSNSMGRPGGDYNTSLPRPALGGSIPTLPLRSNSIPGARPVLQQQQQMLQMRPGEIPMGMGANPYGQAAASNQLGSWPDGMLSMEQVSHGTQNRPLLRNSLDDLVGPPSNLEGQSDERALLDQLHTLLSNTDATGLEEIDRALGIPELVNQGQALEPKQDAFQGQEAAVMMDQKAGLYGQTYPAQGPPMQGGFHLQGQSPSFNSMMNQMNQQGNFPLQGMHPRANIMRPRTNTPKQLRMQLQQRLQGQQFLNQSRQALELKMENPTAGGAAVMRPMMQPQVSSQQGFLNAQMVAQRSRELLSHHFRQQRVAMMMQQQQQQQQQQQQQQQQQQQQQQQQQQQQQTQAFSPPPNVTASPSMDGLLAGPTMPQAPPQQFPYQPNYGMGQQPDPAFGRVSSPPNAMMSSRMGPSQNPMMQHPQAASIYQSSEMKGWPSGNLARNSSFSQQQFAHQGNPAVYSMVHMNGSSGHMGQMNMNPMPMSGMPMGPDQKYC

Test [8] has as its target Peroxisome proliferator-activated receptor gamma/Nuclear receptor coactivator 2 (Homo sapiens, UniProt P37231). The test is described as follows: TR-FRET dose response biochemical High Throughput Screening assay for agonists of the steroid receptor coactivator 2 (SRC-2) recruitment by the peroxisome proliferator-activated receptor gamma (PPAR gamma): non-selective agonists. [Related pubchem assays: 1297, 1032 ]. In kind it is functional.

The target in test [9] is T1, Replicative DNA helicase DnaB (Mycobacterium tuberculosis, UniProt P9WMR3).
T1 sequence (P9WMR3 whole entry): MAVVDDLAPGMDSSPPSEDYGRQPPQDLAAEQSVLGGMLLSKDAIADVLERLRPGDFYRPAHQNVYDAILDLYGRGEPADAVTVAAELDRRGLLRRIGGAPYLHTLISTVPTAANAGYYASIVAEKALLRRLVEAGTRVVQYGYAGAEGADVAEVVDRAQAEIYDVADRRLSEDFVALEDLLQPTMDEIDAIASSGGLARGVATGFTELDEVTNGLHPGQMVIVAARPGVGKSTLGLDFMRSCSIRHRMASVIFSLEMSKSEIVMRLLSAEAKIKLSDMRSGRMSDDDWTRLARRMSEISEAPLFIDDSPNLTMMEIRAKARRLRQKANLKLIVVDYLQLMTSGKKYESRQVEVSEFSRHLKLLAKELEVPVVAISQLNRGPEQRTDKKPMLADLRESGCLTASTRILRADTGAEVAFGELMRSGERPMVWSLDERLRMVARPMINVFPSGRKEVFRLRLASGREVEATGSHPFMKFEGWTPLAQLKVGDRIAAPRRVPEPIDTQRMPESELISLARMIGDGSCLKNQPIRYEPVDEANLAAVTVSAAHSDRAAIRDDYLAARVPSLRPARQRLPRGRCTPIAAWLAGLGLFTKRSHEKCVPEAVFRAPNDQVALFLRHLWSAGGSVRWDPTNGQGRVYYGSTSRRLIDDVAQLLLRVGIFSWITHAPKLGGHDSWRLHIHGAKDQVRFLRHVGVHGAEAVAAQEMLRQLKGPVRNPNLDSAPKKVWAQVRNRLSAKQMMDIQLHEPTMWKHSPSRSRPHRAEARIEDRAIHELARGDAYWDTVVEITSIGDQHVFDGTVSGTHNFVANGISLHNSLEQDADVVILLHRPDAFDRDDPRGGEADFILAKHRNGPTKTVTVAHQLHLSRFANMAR
The test is described as follows: DnaB intein splicing inhibitors, dose response, biochemical, cell-free fluorescence (AID 449749). In kind it is functional.

In test [10] the target is T2, Protein RecA (Mycobacterium tuberculosis, UniProt P9WHJ3).
T2 sequence (P9WHJ3 whole entry): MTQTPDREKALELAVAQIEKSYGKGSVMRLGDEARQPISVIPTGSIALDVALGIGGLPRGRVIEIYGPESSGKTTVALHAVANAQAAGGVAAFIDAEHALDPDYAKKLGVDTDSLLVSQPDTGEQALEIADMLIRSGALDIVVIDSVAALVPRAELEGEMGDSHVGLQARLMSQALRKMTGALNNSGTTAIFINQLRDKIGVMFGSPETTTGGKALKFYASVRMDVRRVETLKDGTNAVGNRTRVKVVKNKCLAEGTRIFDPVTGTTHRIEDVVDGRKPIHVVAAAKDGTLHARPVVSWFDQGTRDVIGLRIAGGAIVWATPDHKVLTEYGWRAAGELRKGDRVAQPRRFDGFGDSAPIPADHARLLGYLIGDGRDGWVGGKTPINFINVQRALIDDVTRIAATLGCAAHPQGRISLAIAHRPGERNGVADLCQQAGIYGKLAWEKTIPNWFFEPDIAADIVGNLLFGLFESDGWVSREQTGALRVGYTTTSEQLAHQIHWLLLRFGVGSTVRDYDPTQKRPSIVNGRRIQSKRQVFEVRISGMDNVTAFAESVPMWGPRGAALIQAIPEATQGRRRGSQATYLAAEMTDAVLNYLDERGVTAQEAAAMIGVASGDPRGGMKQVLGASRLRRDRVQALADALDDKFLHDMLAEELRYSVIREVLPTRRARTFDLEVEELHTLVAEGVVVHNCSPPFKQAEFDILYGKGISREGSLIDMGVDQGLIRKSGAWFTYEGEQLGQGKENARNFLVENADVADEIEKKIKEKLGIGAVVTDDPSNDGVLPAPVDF
The test is described as follows: Fluorescence Cell-Free Homogeneous Dose Retest to Identify Inhibitors of RecA-Intein Splicing Activity. [Related pubchem assays (depositor defined):AID2097, AID2223, AID489010, AID492950]. The test is classed as functional.

The target in test [11] is T3, High affinity choline transporter 1 (Homo sapiens, UniProt Q9GZV3).
T3 sequence (Q9GZV3 whole entry): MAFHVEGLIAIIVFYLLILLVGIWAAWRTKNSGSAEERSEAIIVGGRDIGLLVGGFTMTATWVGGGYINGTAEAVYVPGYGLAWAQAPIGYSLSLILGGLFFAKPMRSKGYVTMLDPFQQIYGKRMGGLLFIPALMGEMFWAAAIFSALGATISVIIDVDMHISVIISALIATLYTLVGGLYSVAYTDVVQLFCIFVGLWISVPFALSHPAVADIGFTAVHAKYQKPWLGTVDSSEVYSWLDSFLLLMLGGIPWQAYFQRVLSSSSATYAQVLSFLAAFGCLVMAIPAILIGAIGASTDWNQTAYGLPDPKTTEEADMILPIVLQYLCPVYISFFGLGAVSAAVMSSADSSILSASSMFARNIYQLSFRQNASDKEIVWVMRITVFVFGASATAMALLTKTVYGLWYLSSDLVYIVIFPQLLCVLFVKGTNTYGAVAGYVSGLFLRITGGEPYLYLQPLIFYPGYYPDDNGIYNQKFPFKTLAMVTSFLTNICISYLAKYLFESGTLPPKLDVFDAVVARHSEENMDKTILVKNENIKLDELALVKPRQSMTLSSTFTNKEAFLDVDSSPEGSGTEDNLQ
Description: CHT inhibitors, dose response, cell-based, 5-point CRC, membrane potential dye (AID 504840). In kind it is functional.

Test [12] concerns the target T4, Heat shock factor protein 1 (Mus musculus, UniProt P38532).
T4 sequence (P38532 whole entry): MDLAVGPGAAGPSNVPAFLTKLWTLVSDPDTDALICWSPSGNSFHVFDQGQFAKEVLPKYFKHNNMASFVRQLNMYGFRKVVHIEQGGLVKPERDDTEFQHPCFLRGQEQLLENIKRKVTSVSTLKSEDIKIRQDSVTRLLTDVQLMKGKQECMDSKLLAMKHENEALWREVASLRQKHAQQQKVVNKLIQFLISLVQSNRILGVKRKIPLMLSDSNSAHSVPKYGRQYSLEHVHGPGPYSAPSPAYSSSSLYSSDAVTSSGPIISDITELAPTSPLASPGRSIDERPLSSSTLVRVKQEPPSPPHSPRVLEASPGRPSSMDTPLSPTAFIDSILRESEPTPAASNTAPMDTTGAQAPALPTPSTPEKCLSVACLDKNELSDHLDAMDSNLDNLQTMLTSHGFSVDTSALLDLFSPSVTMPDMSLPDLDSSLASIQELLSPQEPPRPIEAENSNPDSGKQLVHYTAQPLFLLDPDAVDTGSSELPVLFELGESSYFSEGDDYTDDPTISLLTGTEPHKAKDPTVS
The test is described as follows: HSF1 potentiators in luciferase reporter cells, confirmation, cell-based, NIH3T3, luminescence, dose retest (AID 435004).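 Further: stress induced by proteasome inhibitor MG132 added 30 min after compound; luciferase reporter driven by HSF1 response element in NIH3T3 cells; actives raise luminescence as potentiators of the MG132 stress response.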 The test is classed as functional. (In general: A reporter such as luciferase makes a cellular process visible.)

Test [13] concerns the target T5, Corticotropin-releasing factor receptor 2/Corticotropin-releasing factor-binding protein (Homo sapiens, UniProt P24387+Q13324).
T5 sequence (Q13324 whole entry): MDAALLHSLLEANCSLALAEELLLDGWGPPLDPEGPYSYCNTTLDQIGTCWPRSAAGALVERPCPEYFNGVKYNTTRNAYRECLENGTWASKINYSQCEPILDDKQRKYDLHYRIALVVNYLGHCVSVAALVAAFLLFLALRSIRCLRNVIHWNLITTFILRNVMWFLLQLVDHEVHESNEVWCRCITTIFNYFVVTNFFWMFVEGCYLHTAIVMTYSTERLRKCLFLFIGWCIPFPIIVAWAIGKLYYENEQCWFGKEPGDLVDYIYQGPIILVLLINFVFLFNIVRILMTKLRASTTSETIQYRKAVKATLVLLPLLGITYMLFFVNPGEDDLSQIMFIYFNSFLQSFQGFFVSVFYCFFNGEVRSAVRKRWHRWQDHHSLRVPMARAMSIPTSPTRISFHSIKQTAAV
T5 sequence (P24387 whole entry): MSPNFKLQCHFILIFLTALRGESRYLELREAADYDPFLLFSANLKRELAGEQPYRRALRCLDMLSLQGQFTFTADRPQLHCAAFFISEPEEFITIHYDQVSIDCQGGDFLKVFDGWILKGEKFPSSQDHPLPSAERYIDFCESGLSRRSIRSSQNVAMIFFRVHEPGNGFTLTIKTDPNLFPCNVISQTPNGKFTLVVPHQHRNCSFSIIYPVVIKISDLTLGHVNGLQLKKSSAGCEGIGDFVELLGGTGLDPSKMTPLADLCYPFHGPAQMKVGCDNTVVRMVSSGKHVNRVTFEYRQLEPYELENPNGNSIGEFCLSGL
Description: Dose Response confirmation of uHTS hits for small molecule antagonists of the CRF-binding protein and CRF-R2 receptor complex. The test is classed as functional. Conditions: read-out: IC50_Mean.

The target in test [14] is T5, Corticotropin-releasing factor receptor 2/Corticotropin-releasing factor-binding protein. Description: activators of CRF receptor 2 with binding protein – uHTS hits, confirmation (AID 602473). Conditions: read-out: EC50_Mean. The test is classed as functional.

Experimental findings from ChEMBL document CHEMBL1201862, “PubChem BioAssay data set” (2004) are described below.

The source made the active and inactive calls. A value given as a limit tells only on which side of the number the result lay.

Chain of Peroxisome proliferator-activated receptor gamma/Nuclear receptor coactivator 2 (P37231 whole entry): as the sequence (P37231 whole entry) above
Chain of Peroxisome proliferator-activated receptor gamma/Nuclear receptor coactivator 2 (Q15596 whole entry, further chain): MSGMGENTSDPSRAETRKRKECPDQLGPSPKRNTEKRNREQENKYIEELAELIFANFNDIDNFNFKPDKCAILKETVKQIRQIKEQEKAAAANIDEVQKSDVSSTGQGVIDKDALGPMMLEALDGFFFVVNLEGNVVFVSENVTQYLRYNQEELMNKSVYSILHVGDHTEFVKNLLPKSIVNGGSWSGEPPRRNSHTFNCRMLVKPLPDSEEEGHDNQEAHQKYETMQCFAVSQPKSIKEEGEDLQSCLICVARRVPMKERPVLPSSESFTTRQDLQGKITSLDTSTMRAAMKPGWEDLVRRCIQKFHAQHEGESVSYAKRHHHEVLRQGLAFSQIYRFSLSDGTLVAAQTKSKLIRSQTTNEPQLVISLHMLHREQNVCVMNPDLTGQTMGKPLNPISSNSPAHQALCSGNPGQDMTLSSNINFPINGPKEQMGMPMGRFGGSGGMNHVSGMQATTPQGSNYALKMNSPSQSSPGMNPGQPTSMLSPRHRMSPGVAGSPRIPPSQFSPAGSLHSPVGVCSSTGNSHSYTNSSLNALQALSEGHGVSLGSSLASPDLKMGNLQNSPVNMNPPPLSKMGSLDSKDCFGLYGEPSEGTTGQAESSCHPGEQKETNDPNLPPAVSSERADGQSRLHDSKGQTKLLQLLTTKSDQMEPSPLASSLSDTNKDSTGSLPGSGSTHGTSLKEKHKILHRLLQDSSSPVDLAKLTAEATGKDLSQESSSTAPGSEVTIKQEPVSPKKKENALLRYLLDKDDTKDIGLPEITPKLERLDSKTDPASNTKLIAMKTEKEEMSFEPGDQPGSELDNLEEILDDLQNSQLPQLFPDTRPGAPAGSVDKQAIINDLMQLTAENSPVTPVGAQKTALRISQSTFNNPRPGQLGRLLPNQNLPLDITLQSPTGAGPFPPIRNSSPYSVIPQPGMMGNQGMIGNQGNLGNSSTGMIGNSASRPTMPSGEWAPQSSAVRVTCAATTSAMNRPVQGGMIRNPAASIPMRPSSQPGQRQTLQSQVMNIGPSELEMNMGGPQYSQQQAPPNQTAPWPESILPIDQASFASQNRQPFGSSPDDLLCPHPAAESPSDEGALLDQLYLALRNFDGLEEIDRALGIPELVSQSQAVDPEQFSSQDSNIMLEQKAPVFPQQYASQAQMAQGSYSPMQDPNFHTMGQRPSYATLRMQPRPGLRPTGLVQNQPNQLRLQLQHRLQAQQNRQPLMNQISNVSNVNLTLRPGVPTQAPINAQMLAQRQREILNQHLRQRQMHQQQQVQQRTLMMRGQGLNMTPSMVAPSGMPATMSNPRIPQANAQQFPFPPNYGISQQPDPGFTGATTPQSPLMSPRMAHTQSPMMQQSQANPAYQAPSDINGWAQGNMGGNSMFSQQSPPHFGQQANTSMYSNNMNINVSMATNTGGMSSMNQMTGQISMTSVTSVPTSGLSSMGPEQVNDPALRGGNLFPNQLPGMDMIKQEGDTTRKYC

What is called CC50 is the concentration giving 50% cytotoxicity. Consider `O=C(NCc1cn(-c2ccccc2)nc1-c1ccc(F)cc1)c1cccc([N+](=O)[O-])c1`, for which the CC50 in test [1] was 28.1 µM (active). The IC50 in test [2] was 2.91 µM (active); in test [3] it was 4.31 µM (active). Also, the EC50 in test [4] is 0.805 µM (active); in [5], > 60 µM (not active).
One may read the AC50 as the concentration giving half of the maximal activity seen. Take `O=C(CSc1c2c(nc3cc(Cl)ccc13)CCCC2)NCc1ccco1`: the EC50 in [6] is > 79.4 µM (inactive); in test [7] it was > 79.4 µM (not active); in test [8], > 79.4 µM (not active); in test [10], 7.14 µM (active). In test [9], the AC50 is 27.9 µM (active).
Turning to `Cc1ccc(-c2noc(CCC(=O)NCCCN3CCN(c4ccc(F)cc4)CC3)n2)cc1`, the IC50 in test [2] was 3.28 µM (active); in test [3], 3.21 µM (active).
As to `CC1(C)CC2CC(C)(CN2c2ncnc3ccccc23)C1` (stereo not given), the IC50 in test [2] is 1.7 µM (active); in test [3], 1.16 µM (active); in test [11], 6.74 µM (active).
`N=c1ccn(Cc2cccc(Cl)c2)cc1`: the IC50 in test [2] is 3.15 µM (active); in [3], 3.41 µM (active).
For `COc1cc(-c2nn3c(-c4ccccc4)nnc3s2)cc(OC)c1OC` the same measures were 3.22 µM (active) and > 16 µM (inactive).
With `CC(=O)C1=C(O)C(=O)N(c2nccs2)C1c1ccccc1` (stereo not given), the EC50 is 86.4 µM (inactive) in test [6]; > 79.4 µM (not active) in test [7]; 35.4 µM (not active) in test [8]; > 260 µM (inactive) in [12]; > 53 µM (inactive) in test [14]. The IC50 in test [13] was > 47.1 µM (inactive).
